The text below walks through data of patent US6207397A, “In vitro fluorescence polarization assay” (ARIAD Pharmaceuticals, Inc., priority 1997, dated 2001).

Read-outs that look alike come from different tables or passages of the source. Square brackets hold non-standard residues; d marks the D form. Peptide text beside a SMILES is read from it. * marks the point of attachment. 5FAM = O=C1OC2(c3ccc(O)cc3Oc3cc(O)ccc32)c2ccc(C(=O)*)cc21; pY = N[C@@H](Cc1ccc(OP(=O)(O)O)cc1)C(=O)O

One data set deals with T1, Src-SH2 domain (Homo sapiens, UniProt P12931).
T1 construct: Human Src encoding residues 145-251; made in house; host or cells: E. coli BL21 (DE3), pT7 expression vector
Nature of the data set: Fluorescence polarization saturation experiment of probe FMT1 with Src-SH2. The format is binding. As to the method: Human Src encoding residues 145-251 [Tanaka, A. and Fujita, D. J., Mol. Cell. Biol. 6:3900-3909 (1986)] was cloned into the pT7 expression vector and transformed into E. coli BL21 (DE3). Protein was produced from the growth and induction of 27 liters of culture in minimal medium. In a typical preparation, the culture was grown at 37° C. to an optical density (OD) of 1.0 at 595 nm. The culture was induced with 1 mM isopropyl--D-thiogalactopyranoside (IPTG) and the temperature was dropped to 25° C. The culture was harvested 21 hours later.
(§1) All polarization methods were performed on an FPM2 96-well plate reader (Jolley), with standard cutoff filters (excitation=485 nm; emission=530 nm). Saturation experiments were used to explore various conditions for the assay, with the aim of maximizing the protein and assay stability, and of determining Kd s of the protein/probe interaction.
For saturation experiments, fixed concentrations of probe were used, and increasing concentrations of Src-SH2 were added. This is the reverse of the way such assays are commonly done with radioactive ligands.
A saturation experiment was conducted in which the Src-SH2 domain is varied in concentration from a high of 40 uM to a low of 39 nM. The fluorescent probe FMT1 (FIG. 1) was kept at a fixed concentration of 20 nM. Amino acid analysis was used to quantitate both the protein and probe concentrations. The results are illustrated in the saturation curve and Scatchard analysis of FIGS. 2A and 2B, respectively from this experiment.

The target of data set [1] is T2, Src-SH2 (Homo sapiens, UniProt P12931).
T2 construct: Human Src encoding residues 145-251; made in house; host or cells: E. coli BL21 (DE3), pT7 expression vector
The data set can be described thus: Fluorescence polarization Src-SH2 competition assay with peptides. The format is binding. Particulars: for IC50: TABLE 1, fixed probe and Src-SH2, increasing peptide, read-out: Peptide competitive IC50. The procedure: as §1
For competition experiments, fixed concentrations of probe and protein were used, and increasing concentrations of peptides were added.
All buffer components were low-fluorescence grade (Panvera Corporation). Standard (STD) buffer contains 20 mM phosphate (pH 7.4), 100 mM NaCl, 2 mM DTT, 1 mM EDTA, and 100 ug/ml BGG. Standard buffer is prepared by preparing NaCl, EDTA and phosphate stocks in Millipore water or the cleanest available water supply. The buffer is brought to volume in the same clean water.
The SRC protein is used at a concentration of 0.75 uM final. An example of SRC stock solution is 416.6 uM in STD buffer. […] It is desirable to make a 2× stock of this. For assays where the tighter-binding pYpYpYIE probe is used, the Src protein concentration can be reduced to 150 nM. In general, the concentration of the protein can be adjusted to match the affinity of the probe.
Fluor-GpYEEI is used as the probe at a concentration of 20 nM final. The probe stock sent is 10 uM in STD buffer.

For another data set, the target named is GRB2 SH2 (Homo sapiens, UniProt P62993). Particulars: saturation with GRB2 SH2 protein. As to the method: The human GRB2 protein tested in the assay comprised amino acid residues 55-152 of huGRB2 [see Cell 70: 431-442 (1992)], although longer sequences encompassing the SH2 domain may also be used. Production and purification of the protein domain was similar to methods described above, especially the use of a phosphotyrosine column to purify the GRB2 SH2domain.
As in previous examples, saturation experiments were performed with fixed concentrations of probe and increasing concentrations of Grb-2-SH2.
The following Grb-2-specific SH2 probe ("FPgb2") was synthesized using the techniques described in Example 1 [drawing 1] 2, Fluor-GpYVNV-NH2

For the next data set, the target named is Src SH2-SH3 (Homo sapiens, UniProt P12931). Nature of the data set: Fluorescence polarization saturation experiment, Src SH2-SH3 double binding assay. Particulars: saturation with Src-SH2-SH3; SH2-SH3 probe. The text has this: Proteins such as Src contain both an SH2 and an SH3 domain. Certain proteins can bind to such SH2- SH3 proteins not through SH2 or SH3 domains alone, but through both domains at once. One example is the protein, p130CAS, which is thought to bind Src via both SH2 and SH3 domains. The SH3 and SH2 binding sequences of p130CAS have been identified by deletional and site-specific mutagenesis (Nakamoto et. al., JBC 271, 8959-8965, 1996). […] Fluorescent probes for FP assays were designed based on these sequences. Such probes can be used in assays that allow simultaneous screening for both SH2-specific and SH3-specific inhibitors. One such probe ("FPC130") is the following:
This is the native sequence from p130CAS (733-767). Derivative probes based on the foregoing but using different component SH2 and/or SH3 sequences may be used to vary the affinity or protein specificity, and especially to increase the overall affinity of probe for the desired target protein.

A further data set deals with T3, Src SH3 (Homo sapiens, UniProt P12931).
T3 construct: SH3-specific probe
Nature of the data set: Fluorescence polarization saturation experiment, Src SH3 binding assay with Src-SH2-SH3 protein. Particulars: SH3 probe. The text has this: Biol. 7(5): 1978-1983 (1987)], and a probe specific for the Src SH3 domain (in place of the Src-specific SH2 probe). Note that larger or smaller Src proteins may be used, so long as they include the Src SH3 domain (with or without the Src SH2 domain). Production and purification of the protein were essentially as described above, e.g., see Example 3. The following details are provided:
The following Src SH3 specific probe ("FPSH3") was synthesized using the techniques described in Example 1: […]

The target in data set [2] is T2, Src-SH2. The data set can be described thus: Fluorescence polarization saturation experiment with Src-SH2 using an alternate (BODIPY-TRX) probe. Particulars: filters 591/635. The format is binding. From the text:
A competition assay was developed for Src-SH2 (applicable to any fragment of Src containing the SH2 domain) with a non-fluorescein fluorophore. The fluorophore is one of a family of fluorescent molecules containing the core fluorophore, 4,4-difluoro-4 bora-3a,4a-diaza-s-indacene (commerciallyavailable from Molecular Probes Inc.). The structure of the fluorophore-peptide probe is: [drawing 2]
Specifically, the excitation/emission filters used with the above are 591/635, compared to 485/530 for fluorescein.
(§2) Synthesis of the peptide portion of the probe was as described in Example 1, with production of the peptide NH2-pYEEI. The probe was further synthesized by coupling the free amine peptide, NH2-pYEEI, with the succinimidyl ester of the BODIPY-TRX probe in a 66% DMSO buffer (34% 0.1 MNaBicarbonate). Completion of reaction was monitored by silica gel TLC (4:1:1, butanol, H2O , Acetic Acid solvent system), and was done by 24 hrs.
The only difference was the use of an alternate set of filters for the red probe, as described in A above.

A short description of data set [3]: Hydrophobicity of the BODIPY-TRX peptide probe. Type of data set: physicochemical. Particulars: resultant peptide.
Description: as §2

GRB2 SH2, sequence (P62993 55-152): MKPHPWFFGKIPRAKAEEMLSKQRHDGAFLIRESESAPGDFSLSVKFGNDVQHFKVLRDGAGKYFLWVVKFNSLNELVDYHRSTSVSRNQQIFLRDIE

With `CC[C@H](C)[C@H](NC(=O)[C@H](CCC(=O)O)NC(=O)[C@H](CCC(=O)O)NC(=O)[C@H](Cc1ccc(OP(=O)(O)O)cc1)NC(=O)CNC(=O)c1ccc2c(c1)C(=O)OC21c2ccc(O)cc2Oc2cc(O)ccc21)C(N)=O` [FMT1, fluorescein-G-pYEEI-NH2] (5FAM-G[pY]EEI-NH2), the Kd was 240 nM at Src-SH2 domain (FIG. 2A, error of 0.008, FMT1 fixed at 20 nM, Src-SH2 39 nM to 40 uM, read-out: Calculated Kd (non-linear least squares fit of saturation experiment)); 260 nM on Src-SH2 domain (FIG. 2B, R value 0.992 for the linear fit, read-out: Calculated Kd (Scatchard analysis)); about 300 nM at Src-SH2 domain (standard buffer conditions, read-out: Kd towards Src-SH2). The “Binding mode in saturation experiment” value on Src-SH2 domain (FIGS. 2A and 2B) is given as “saturable binding to a single site is observed”.

Consider Ac-pYGGL, for which the 50% inhibitory concentration (IC50) at Src-SH2 [1] is 700000 nM.

As for Ac-pYpYEEI, the IC50 on Src-SH2 [1] stood at 1500 nM.

Turning to `CC(C)[C@H](NC(=O)[C@H](CC(N)=O)NC(=O)[C@@H](NC(=O)[C@H](Cc1ccc(OP(=O)(O)O)cc1)NC(=O)CNC(=O)c1ccc2c(c1)C(=O)OC21c2ccc(O)cc2Oc2cc(O)ccc21)C(C)C)C(N)=O` [FPgb2, Fluor-GpYVNV-NH2] (5FAM-G[pY]VNV-NH2), the “Kd and total mP difference on protein binding” value (shortened to “Kd and total mP difference”) at GRB2 SH2 is “appropriate Kd and total mP difference on protein binding”.

Regarding `CC[C@H](C)[C@H](NC(=O)[C@H](Cc1ccc(OP(=O)(O)O)cc1)NC(=O)[C@H](Cc1ccc(OP(=O)(O)O)cc1)NC(=O)[C@H](Cc1ccc(OP(=O)(O)O)cc1)NC(=O)c1ccc2c(c1)C(=O)OC21c2ccc(O)cc2Oc2cc(O)ccc21)C(=O)N[C@@H](CCC(=O)O)C(N)=O` [pYpYpYIE probe, fluorescein-pYpYpYIE-NH2] (5FAM-[pY][pY][pY]IE-NH2), the “Relative binding of probe to Src” value at Src-SH2 [1] (probe allowing Src protein reduced to 150 nM) is recorded as “tighter-binding”.

Consider “Fluor-RPLPSPPKFTSQDSPDGQYENSEGGWMEDpYDYVHL [FPC130]”, for which the “Kd and total mP difference” value in the data set with Src SH2-SH3 is “appropriate Kd and total mP difference on protein binding”.

As to Ac-pYpYpYIE, the IC50 at Src-SH2 [1] is 500 nM.

As for `CC(C)C[C@H](NC(=O)[C@@H]1CCCN1C(=O)c1ccc2c(c1)C(=O)OC21c2ccc(O)cc2Oc2cc(O)ccc21)C(=O)N[C@@H](C)C(=O)N[C@@H](CCCNC(=N)N)C(=O)N[C@@H](CCCNC(=N)N)C(=O)N1CCC[C@H]1C(=O)N[C@@H](CC(C)C)C(=O)N1CCC[C@H]1C(=O)N1CCC[C@H]1C(=O)N[C@@H](CC(C)C)C(=O)N1CCC[C@H]1C(N)=O` [FPSH3] (5FAM-PLARRPLPPLP-NH2), the “Kd and total mP difference” value at Src SH3 was “appropriate Kd and total mP difference on protein binding”.

Consider Ac-pYTGL, for which the IC50 at Src-SH2 [1] came out at 100000 nM.

Turning to `CC[C@H](C)[C@H](NC(=O)[C@H](CCC(=O)O)NC(=O)[C@H](CCC(=O)O)NC(=O)[C@H](Cc1ccc(OP(=O)(O)O)cc1)NC(=O)CCCCCNC(=O)CC1=C(C)C2=Cc3ccc(-c4ccc(OC)cc4)n3[B-](F)(F)[N+]2=C1C)C(N)=O` [BODIPY-TRX probe], on Src-SH2 [2], the “Kd and total mP difference” value was “adequate Kd and total mP difference on protein binding”. The Hydrophobicity entry in data set [3] is reported as “quite hydrophobic”.
